Results taken from US8901168B2 (priority 2007, dated 2014).

Tested on: anti-TT antibodies
Set-up: species or system BALB/c mice
Settings: mouse, in vivo

Row | SMILES | anti-TT Ig titres | anti-TT antibody titres after the third vaccination vs α-T treated mice | anti-TT antibody titres after the third vaccination, ranking of groups | antibody titres after the third immunisation as compared to first immunisation
1 | Cc1c(C)c2c(c(C)c1O)CC[C@@](C)(CCC[C@H](C)CCC[C@H](C)CCCC(C)C)O2 [α-T, α-tocopherol] | significantly (P<0.05) enhanced | – | – | –
2 | CC(C)=CCC/C(C)=C/CC/C(C)=C/CC[C@]1(C)CCc2cc(O)cc(C)c2O1 [δ-T3, δ-tocotrienol] | significantly (P<0.05) enhanced | significantly (P<0.01) higher | highest | highly significant (P<0.01) antibody titres
